Measured values taken from ChEMBL document CHEMBL4229569, “Structure-Based Design of 1-Heteroaryl-1,3-propanediamine Derivatives as a Novel Series of CC-Chemokine Receptor 5 Antagonists” (J Med Chem, 2018).

What was measured:
[1] = Cmax in Sprague-Dawley rat at 20 mg/kg, po by LC-MS/MS analysis; format: ADME, organism-based; design: dose 20 mg/kg, route oral; settings: in vivo
[2] = AUC (0 to infinity) in Sprague-Dawley rat at 20 mg/kg, po by LC-MS/MS analysis; format: ADME, organism-based; design: dose 20 mg/kg, route oral, time infinity; settings: in vivo
[3] = in vitro; settings: human, PBMC
Description: Therapeutic index, ratio of CC50 for human PBMC to IC50 for CCR5-dependent HIV1 KM018 infected in human PBMC

[4] = test system: Human immunodeficiency virus 1; test: microbe, parasite or virus in culture; settings: Human immunodeficiency virus 1, KM018, PBMC, 168 h
Description: Antiviral activity against CCR5-dependent HIV1 KM018 infected in human PBMC assessed as reduction in virus infection measured after 7 days by luciferase reporter gene assay

[5] = AUC (0 to infinity) in Sprague-Dawley rat at 10 mg/kg, iv by LC-MS/MS analysis; format: ADME, organism-based; design: dose 10 mg/kg, time infinity, route intravenous; settings: in vivo
[6] = test system: Human immunodeficiency virus 1; test: microbe, parasite or virus in culture; settings: Human immunodeficiency virus 1, SF162, PBMC, 168 h
Description: Antiviral activity against CCR5-dependent HIV1 SF162 infected in human PBMC assessed as reduction in virus infection measured after 7 days by luciferase reporter gene assay

[7] = test system: Human immunodeficiency virus 1; test: microbe, parasite or virus in culture; settings: Human immunodeficiency virus 1, SF162, HOS, 120 h
Description: Antiviral activity against CCR5-dependent HIV1 SF162 infected in human HOS cells assessed as reduction in virus infection measured after 5 days by luciferase reporter gene assay

[8] = test system: Human immunodeficiency virus 1; test: microbe, parasite or virus in culture; settings: Human immunodeficiency virus 1, Ba-L, HOS, 120 h
Description: Antiviral activity against CCR5-dependent HIV1 Ba-L infected in human HOS cells assessed as reduction in virus infection measured after 5 days by luciferase reporter gene assay

[9] = target: Voltage-gated inwardly rectifying potassium channel KCNH2 (Homo sapiens, UniProt Q12809); test: Inhibition of human ERG expressed in CHO cells at holding potential of -80 mV after 60 secs by patch clamp assay; format: cell-based
Sequence of Voltage-gated inwardly rectifying potassium channel KCNH2 (Q12809 whole entry): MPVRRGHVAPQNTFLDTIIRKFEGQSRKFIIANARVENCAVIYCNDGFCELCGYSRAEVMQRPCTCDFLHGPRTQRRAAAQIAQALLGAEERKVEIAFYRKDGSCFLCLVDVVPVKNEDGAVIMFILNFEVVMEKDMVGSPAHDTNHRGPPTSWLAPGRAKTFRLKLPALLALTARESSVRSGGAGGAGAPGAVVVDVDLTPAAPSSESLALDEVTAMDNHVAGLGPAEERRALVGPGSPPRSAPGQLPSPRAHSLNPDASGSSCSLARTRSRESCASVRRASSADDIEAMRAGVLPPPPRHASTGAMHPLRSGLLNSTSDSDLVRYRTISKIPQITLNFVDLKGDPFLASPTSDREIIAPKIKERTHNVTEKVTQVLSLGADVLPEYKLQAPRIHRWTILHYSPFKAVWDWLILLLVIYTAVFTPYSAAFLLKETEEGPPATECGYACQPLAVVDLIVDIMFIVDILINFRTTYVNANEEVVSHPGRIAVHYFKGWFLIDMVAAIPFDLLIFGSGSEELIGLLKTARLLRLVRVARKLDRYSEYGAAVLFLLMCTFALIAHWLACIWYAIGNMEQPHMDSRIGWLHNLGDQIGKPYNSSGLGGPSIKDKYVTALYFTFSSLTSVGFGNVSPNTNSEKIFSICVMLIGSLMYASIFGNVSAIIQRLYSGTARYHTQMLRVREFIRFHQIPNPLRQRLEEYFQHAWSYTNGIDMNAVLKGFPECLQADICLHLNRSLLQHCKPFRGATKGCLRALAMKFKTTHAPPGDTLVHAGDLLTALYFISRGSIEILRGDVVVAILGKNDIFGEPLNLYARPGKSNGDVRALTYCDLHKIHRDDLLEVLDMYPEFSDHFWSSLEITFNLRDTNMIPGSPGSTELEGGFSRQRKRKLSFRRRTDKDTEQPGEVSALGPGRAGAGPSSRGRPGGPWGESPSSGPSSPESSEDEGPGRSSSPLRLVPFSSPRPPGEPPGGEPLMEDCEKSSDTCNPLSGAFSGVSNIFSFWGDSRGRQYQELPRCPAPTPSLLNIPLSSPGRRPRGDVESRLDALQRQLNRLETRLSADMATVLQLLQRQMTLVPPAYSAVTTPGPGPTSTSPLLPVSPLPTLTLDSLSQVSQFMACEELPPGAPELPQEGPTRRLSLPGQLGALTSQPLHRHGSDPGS

[10] = Oral bioavailability in Sprague-Dawley rat at 20 mg/kg by LC-MS/MS analysis; format: ADME, organism-based; settings: in vivo
[11] = MRT in Sprague-Dawley rat at 20 mg/kg, po by LC-MS/MS analysis; format: ADME, organism-based; settings: in vivo
[12] = Clearance in Sprague-Dawley rat at 10 mg/kg, iv by LC-MS/MS analysis; format: ADME, organism-based; settings: in vivo
[13] = in vitro; settings: human, HOS cells
Description: Therapeutic index, ratio of CC50 for human HOS cells to IC50 for CCR5-dependent HIV1 SF162 infected in human HOS cells

[14] = target: Cytochrome P450 2D6 (Homo sapiens, UniProt P10635); test: Inhibition of CYP2D6 (unknown origin); format: ADME
Sequence of Cytochrome P450 2D6 (P10635 whole entry): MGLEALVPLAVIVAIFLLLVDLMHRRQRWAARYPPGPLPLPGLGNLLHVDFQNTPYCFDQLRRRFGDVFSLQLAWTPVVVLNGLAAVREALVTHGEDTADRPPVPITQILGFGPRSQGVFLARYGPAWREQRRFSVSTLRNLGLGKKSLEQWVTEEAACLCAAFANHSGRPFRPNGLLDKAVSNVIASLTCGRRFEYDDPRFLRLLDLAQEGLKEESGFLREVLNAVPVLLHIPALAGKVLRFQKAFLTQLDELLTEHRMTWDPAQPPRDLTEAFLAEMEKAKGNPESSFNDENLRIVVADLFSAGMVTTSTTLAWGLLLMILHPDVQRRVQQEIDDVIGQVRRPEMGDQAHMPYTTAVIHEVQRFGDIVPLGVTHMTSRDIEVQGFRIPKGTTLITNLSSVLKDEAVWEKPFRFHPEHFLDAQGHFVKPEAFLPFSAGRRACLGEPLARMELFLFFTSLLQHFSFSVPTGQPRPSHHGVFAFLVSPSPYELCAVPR

[15] = Half life in Sprague-Dawley rat at 20 mg/kg, po by LC-MS/MS analysis; format: ADME, organism-based; settings: in vivo
[16] = Cytotoxicity against human TZM-bl cells after 48 hrs by MTT assay; format: cell-based
[17] = target: Cytochrome P450 2C19 (Homo sapiens, UniProt P33261); test: Inhibition of CYP2C19 (unknown origin); format: ADME
Sequence of Cytochrome P450 2C19 (P33261 whole entry): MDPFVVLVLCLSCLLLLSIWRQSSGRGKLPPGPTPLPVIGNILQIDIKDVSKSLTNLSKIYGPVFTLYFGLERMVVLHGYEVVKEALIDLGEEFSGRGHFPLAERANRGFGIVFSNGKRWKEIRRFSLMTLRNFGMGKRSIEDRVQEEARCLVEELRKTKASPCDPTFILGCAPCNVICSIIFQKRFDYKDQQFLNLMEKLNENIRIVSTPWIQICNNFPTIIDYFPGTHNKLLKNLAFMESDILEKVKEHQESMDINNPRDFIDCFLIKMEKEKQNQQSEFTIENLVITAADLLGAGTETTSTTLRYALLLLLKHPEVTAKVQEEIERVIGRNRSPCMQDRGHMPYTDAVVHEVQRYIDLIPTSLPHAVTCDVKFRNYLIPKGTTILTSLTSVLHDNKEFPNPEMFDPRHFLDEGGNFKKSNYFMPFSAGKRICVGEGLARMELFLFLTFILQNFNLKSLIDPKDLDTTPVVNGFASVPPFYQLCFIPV

[18] = in vitro; settings: human, PBMC; remark: listed apart in the source
Description: Therapeutic index, ratio of CC50 for human PBMC to IC50 for CCR5-dependent HIV1 SF162 infected in human PBMC cells

[19] = test system: Human immunodeficiency virus 1; test: microbe, parasite or virus in culture; settings: Human immunodeficiency virus 1, Ba-L, PBMC, 168 h
Description: Antiviral activity against CCR5-dependent HIV1 Ba-L infected in human PBMC assessed as reduction in virus infection measured 7 days by luciferase reporter gene assay

[20] = Half life in Sprague-Dawley rat at 10 mg/kg, iv by LC-MS/MS analysis; format: ADME, organism-based; settings: in vivo
[21] = target: T1, Cytochrome P450 3A4 (Homo sapiens, UniProt P08684); test: Inhibition of CYP3A4 (unknown origin) using midazolam as substrate; format: ADME
T1 sequence (P08684 whole entry): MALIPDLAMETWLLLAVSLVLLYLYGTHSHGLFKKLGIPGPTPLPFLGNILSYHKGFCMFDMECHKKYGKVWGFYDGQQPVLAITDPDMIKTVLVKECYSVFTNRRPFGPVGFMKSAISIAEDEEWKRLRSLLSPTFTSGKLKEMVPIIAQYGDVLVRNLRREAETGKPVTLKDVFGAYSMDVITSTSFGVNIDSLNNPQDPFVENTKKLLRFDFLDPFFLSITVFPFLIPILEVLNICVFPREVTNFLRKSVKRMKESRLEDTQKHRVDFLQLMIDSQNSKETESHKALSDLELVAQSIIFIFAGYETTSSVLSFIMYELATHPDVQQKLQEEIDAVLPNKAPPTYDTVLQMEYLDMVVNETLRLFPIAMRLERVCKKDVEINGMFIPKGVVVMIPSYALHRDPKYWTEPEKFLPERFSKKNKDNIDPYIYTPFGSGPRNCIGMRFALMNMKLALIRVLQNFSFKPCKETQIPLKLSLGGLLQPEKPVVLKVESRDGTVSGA

[22] = Cmax in Sprague-Dawley rat at 10 mg/kg, iv by LC-MS/MS analysis; format: ADME, organism-based; design: dose 10 mg/kg, route intravenous; settings: in vivo
[23] = target: Cytochrome P450 2C9 (Homo sapiens, UniProt P11712); test: Inhibition of CYP2C9 (unknown origin); format: ADME
Sequence of Cytochrome P450 2C9 (P11712 whole entry): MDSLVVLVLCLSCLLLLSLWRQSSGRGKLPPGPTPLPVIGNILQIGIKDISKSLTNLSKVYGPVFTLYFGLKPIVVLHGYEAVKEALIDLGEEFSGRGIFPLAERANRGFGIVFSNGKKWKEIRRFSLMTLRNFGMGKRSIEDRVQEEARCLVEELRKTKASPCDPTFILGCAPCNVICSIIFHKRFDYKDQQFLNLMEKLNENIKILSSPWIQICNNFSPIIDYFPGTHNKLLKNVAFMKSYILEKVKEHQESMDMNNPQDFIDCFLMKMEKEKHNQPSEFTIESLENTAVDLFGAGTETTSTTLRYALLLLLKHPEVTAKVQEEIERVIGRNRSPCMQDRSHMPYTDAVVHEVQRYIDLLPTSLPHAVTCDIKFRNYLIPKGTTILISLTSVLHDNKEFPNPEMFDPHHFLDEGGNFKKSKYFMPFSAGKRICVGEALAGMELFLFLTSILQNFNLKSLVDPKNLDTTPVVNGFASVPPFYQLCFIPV

[24] = target: T1, Cytochrome P450 3A4; test: Inhibition of CYP3A4 (unknown origin) using testosterone as substrate; format: ADME
[25] = in vitro; settings: human, TZM-bl cells
Description: Therapeutic index, ratio of CC50 for human TZM-bl cells to EC50 for CCR5-dependent HIV1 SF162 infected in human TZM-bl cells

[26] = test system: Human immunodeficiency virus 1; test: microbe, parasite or virus in culture; settings: Human immunodeficiency virus 1, Ba-L, PM1, 120 h
Description: Antiviral activity against CCR5-dependent HIV1 Ba-L infected in human PM1 cells assessed as reduction in virus infection measured after 5 days by luciferase reporter gene assay

[27] = target: C-C chemokine receptor type 5 (Homo sapiens, UniProt P51681); test: Antagonist activity at CCR5 (unknown origin) expressed in HEK293 cells co-expressing Galpha16 assessed as inhibition of RANTES-induced calcium flux preincubated for 10 mins followed by RANTES addition by fluo-4AM-based fluorescence assay; format: functional, cell-based
Sequence of C-C chemokine receptor type 5 (P51681 whole entry): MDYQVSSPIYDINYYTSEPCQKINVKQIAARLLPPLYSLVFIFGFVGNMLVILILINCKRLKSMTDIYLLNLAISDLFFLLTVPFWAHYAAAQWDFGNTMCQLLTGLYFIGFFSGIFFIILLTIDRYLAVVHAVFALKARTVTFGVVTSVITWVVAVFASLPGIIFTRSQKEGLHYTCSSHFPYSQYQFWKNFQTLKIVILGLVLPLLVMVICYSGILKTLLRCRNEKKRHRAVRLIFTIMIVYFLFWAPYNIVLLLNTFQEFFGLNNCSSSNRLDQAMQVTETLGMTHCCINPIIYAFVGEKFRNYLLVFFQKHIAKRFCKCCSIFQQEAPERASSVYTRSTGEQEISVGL

[28] = Tmax in Sprague-Dawley rat at 20 mg/kg, po by LC-MS/MS analysis; format: ADME, organism-based; settings: in vivo
[29] = target: T2, Cytochrome P450 1A2 (Homo sapiens, UniProt P05177); test: Inhibition of CYP1A2 (unknown origin); format: ADME
T2 sequence (P05177 whole entry): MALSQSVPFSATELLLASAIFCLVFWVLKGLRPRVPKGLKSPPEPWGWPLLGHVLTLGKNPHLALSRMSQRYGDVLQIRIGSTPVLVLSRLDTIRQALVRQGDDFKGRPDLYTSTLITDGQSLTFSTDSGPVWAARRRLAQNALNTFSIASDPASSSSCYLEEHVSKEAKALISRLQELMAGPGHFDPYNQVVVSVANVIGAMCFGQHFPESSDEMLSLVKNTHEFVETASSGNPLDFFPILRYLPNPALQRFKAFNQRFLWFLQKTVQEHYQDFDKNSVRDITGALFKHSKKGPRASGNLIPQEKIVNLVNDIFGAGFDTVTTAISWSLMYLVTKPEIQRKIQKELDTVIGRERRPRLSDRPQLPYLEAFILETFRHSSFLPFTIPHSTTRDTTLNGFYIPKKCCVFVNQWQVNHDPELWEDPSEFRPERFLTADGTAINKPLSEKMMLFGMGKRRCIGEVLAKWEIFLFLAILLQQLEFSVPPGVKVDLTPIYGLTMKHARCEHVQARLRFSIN

[30] = test system: Human immunodeficiency virus 1; test: microbe, parasite or virus in culture; settings: Human immunodeficiency virus 1, SF162, TZM-bl, 48 h
Description: Antiviral activity against CCR5-dependent HIV1 SF162 infected in human TZM-bl cells assessed as reduction in virus infection measured after 48 hrs post infection by luciferase reporter gene assay

[31] = in vitro; settings: human, PBMC; remark: listed apart in the source
Description: Therapeutic index, ratio of CC50 for human PBMC to IC50 for CCR5-dependent HIV1 Ba-L infected in human PBMC

[32] = in vitro; settings: human, HOS cells; remark: listed apart in the source
Description: Therapeutic index, ratio of CC50 for human HOS cells to IC50 for CCR5-dependent HIV1 Ba-L infected in human HOS cells

[33] = MRT in Sprague-Dawley rat at 10 mg/kg, iv by LC-MS/MS analysis; format: ADME, organism-based; settings: in vivo
[34] = in vitro; settings: human, PM1 cells
Description: Therapeutic index, ratio of CC50 for human PM1 cells to IC50 for CCR5-dependent HIV1 Ba-L infected in human PM1 cells

[35] = Tmax in Sprague-Dawley rat at 10 mg/kg, iv by LC-MS/MS analysis; format: ADME, organism-based; settings: in vivo
[36] = test system: Rattus norvegicus; test: Toxicity in rat assessed as mortality at 2000 mg/kg, po administered as single dose and measured during 14 days observation period; format: organism-based; settings: in vivo, 336 h
[37] = test system: Hepatocyte; test: Metabolic stability in human hepatocytes assessed as compound remaining by UPLC/Q-TOF mass spectrometric analysis; format: ADME, cell-based
[38] = Cmax in dog at 15 mg/kg, po by LC-MS/MS analysis; format: ADME, organism-based, Canis lupus familiaris; design: dose 15 mg/kg, route oral; settings: in vivo
[39] = AUC (0 to infinity) in dog at 3 mg/kg, iv by LC-MS/MS analysis; format: ADME, organism-based, Canis lupus familiaris; design: dose 3 mg/kg, route intravenous, time infinity; settings: in vivo
[40] = Half life in dog at 15 mg/kg, po by LC-MS/MS analysis; format: ADME, organism-based, Canis lupus familiaris; settings: in vivo
[41] = MRT in dog at 3 mg/kg, iv by LC-MS/MS analysis; format: ADME, organism-based, Canis lupus familiaris; settings: in vivo
[42] = test system: Hepatocyte; test: Metabolic stability in rat hepatocytes assessed as compound remaining by UPLC/Q-TOF mass spectrometric analysis; format: ADME, cell-based
[43] = test system: Hepatocyte; test: Metabolic stability in monkey hepatocytes assessed as compound remaining by UPLC/Q-TOF mass spectrometric analysis; format: ADME, cell-based, Macaca mulatta; settings: rhesus monkey
[44] = AUC (0 to infinity) in dog at 15 mg/kg, po by LC-MS/MS analysis; format: ADME, organism-based, Canis lupus familiaris; design: dose 15 mg/kg, time infinity, route oral; settings: in vivo
[45] = Tmax in dog at 15 mg/kg, po by LC-MS/MS analysis; format: ADME, organism-based, Canis lupus familiaris; settings: in vivo
[46] = MRT in dog at 15 mg/kg, po by LC-MS/MS analysis; format: ADME, organism-based, Canis lupus familiaris; settings: in vivo
[47] = test system: Hepatocyte; test: Metabolic stability in dog hepatocytes assessed as compound remaining by UPLC/Q-TOF mass spectrometric analysis; format: ADME, cell-based, Canis lupus familiaris
[48] = Oral bioavailability in dog at 15 mg/kg by LC-MS/MS analysis; format: ADME, organism-based, Canis lupus familiaris; settings: in vivo
[49] = Half life in dog at 3 mg/kg, iv by LC-MS/MS analysis; format: ADME, organism-based, Canis lupus familiaris; settings: in vivo
[50] = test system: Canis familiaris; test: Toxicity in po dosed dog assessed as drug tolerability administered as single dose; format: organism-based, Canis lupus familiaris; settings: in vivo
[51] = Clearance in dog at 3 mg/kg, iv by LC-MS/MS analysis; format: ADME, organism-based, Canis lupus familiaris; settings: in vivo

Compound: Cc1nnc(C(C)C)n1[C@@H]1C[C@H]2CC[C@@H](C1)N2CC[C@H](NC(=O)C1CCCCC1)c1cccs1
- Cmax [1]: 631 ng/mL
- AUC(0-inf) [2]: 1510 ng·h/mL
- selectivity ratio [3]: 529
- IC50 [4]: 0.505 µM
- AUC(0-inf) [5]: 5110 ng·h/mL
- IC50 [6]: 0.524 µM
- IC50 [7]: 0.0437 µM
- IC50 [8]: 0.0125 µM
- IC50 [9]: 2.06 µM
- bioavailability [10]: 14.8%
- MRT [11]: 2.1 h
- clearance [12]: 32.7 mL/min/kg
- selectivity ratio [13]: 7800
- IC50 [14]: 15.1 µM
- half-life [15]: 1.16 h
- CC50 at 48 h [16]: > 200 µM
- IC50 [17]: > 25 µM
- selectivity ratio [18]: 509
- IC50 [19]: 0.464 µM
- half-life [20]: 0.31 h
- IC50 [21]: 12.3 µM
- Cmax [22]: 4320 ng/mL
- IC50 [23]: > 25 µM
- IC50 [24]: 21.7 µM
- selectivity ratio [25]: > 18000
- IC50 [26]: 0.0082 µM
- IC50 [27]: 0.0023 µM
- Tmax [28]: 0.25 h
- IC50 [29]: > 25 µM
- IC50 [30]: 0.0111 µM
- selectivity ratio [31]: 575
- selectivity ratio [32]: 27000
- MRT [33]: 0.8 h
- selectivity ratio [34]: 44000
- Tmax [35]: 0.25 h

Compound: Cc1nnc(C(C)C)n1[C@@H]1C[C@H]2CC[C@@H](C1)N2CC[C@H](NC(=O)C1CCC(F)(F)CC1)c1ccsc1
- Cmax [1]: 306 ng/mL
- AUC(0-inf) [2]: 1260 ng·h/mL
- Activity [36]: Non-Toxic
- selectivity ratio [3]: 290000
- IC50 [4]: 0.0023 µM
- Stability [37]: > 99%
- AUC(0-inf) [5]: 4160 ng·h/mL
- Cmax [38]: 4610 ng/mL
- IC50 [6]: 0.0043 µM
- IC50 [7]: 0.0049 µM
- IC50 [8]: 0.0012 µM
- IC50 [9]: > 40 µM
- bioavailability [10]: 14.5%
- MRT [11]: 2.6 h
- AUC(0-inf) [39]: 10900 ng·h/mL
- half-life [40]: 3.9 h
- MRT [41]: 1.6 h
- Stability [42]: > 97%
- Stability [43]: > 98%
- AUC(0-inf) [44]: 5520 ng·h/mL
- clearance [12]: 16.7 mL/min/kg
- selectivity ratio [13]: 69000
- Tmax [45]: 0.8 h
- IC50 [14]: > 25 µM
- half-life [15]: 1.6 h
- CC50 at 48 h [16]: > 200 µM
- IC50 [17]: > 25 µM
- selectivity ratio [18]: 160000
- IC50 [19]: 0.003 µM
- half-life [20]: 1.02 h
- IC50 [21]: > 25 µM
- MRT [46]: 2.1 h
- Cmax [22]: 3780 ng/mL
- IC50 [23]: > 25 µM
- IC50 [24]: > 25 µM
- Stability [47]: > 97%
- selectivity ratio [25]: > 130000
- bioavailability [48]: 10%
- IC50 [26]: 0.0028 µM
- IC50 [27]: 0.003 µM
- half-life [49]: 1.7 h
- Activity [50]: Non-Toxic
- Tmax [28]: 2 h
- IC50 [29]: > 25 µM
- IC50 [30]: 0.0015 µM
- selectivity ratio [31]: 220000
- selectivity ratio [32]: 280000
- MRT [33]: 0.8 h
- selectivity ratio [34]: 260000
- clearance [51]: 5 mL/min/kg
- Tmax [35]: 0.25 h
